Experimental data published in the CheMixHub drug solubility set.

Test: xn = mol fraction of the nth substance listed, in the solute-free solvent

COc1cc2c(cc1OC)-c1cc3ccc(OC)c(OC)c3c[n+]1CC2.[Cl-] + OCCO + O
solubility (g/100 g solution)
Conditions | 283.15 K | 288.15 K | 293.15 K | 298.15 K | 303.15 K | 308.15 K | 313.15 K | 318.15 K | 323.15 K | 328.15 K
x2 = 0.03125 | 1.2 | 1.46 | 1.83 | 2.28 | 2.8 | 3.39 | 4.08 | 4.86 | 5.75 | 6.75
x2 = 0.06767 | 1.25 | 1.51 | 1.89 | 2.35 | 2.88 | 3.48 | 4.19 | 4.98 | 5.89 | 6.91
x2 = 0.1107 | 1.33 | 1.6 | 1.99 | 2.47 | 3.02 | 3.65 | 4.37 | 5.2 | 6.13 | 7.19
x2 = 0.1622 | 1.41 | 1.69 | 2.09 | 2.58 | 3.15 | 3.8 | 4.55 | 5.4 | 6.36 | 7.45
x2 = 0.225 | 1.47 | 1.78 | 2.23 | 2.74 | 3.31 | 3.98 | 4.71 | 5.6 | 6.54 | 7.6
x2 = 0.3034 | 1.49 | 1.82 | 2.23 | 2.74 | 3.27 | 3.96 | 4.69 | 5.57 | 6.5 | 7.55
x2 = 0.4038 | 1.45 | 1.79 | 2.16 | 2.64 | 3.18 | 3.77 | 4.46 | 5.28 | 6.2 | 7.26
x2 = 0.5373 | 1.36 | 1.65 | 2.01 | 2.43 | 2.92 | 3.5 | 4.22 | 4.93 | 5.81 | 6.75
x2 = 0.7232 | 1.23 | 1.46 | 1.79 | 2.17 | 2.63 | 3.15 | 3.76 | 4.44 | 5.21 | 6.07

Nc1nccnc1Cl + OCCO + O
solubility (g/100 g solution)
Conditions | 278.15 K | 283.15 K | 288.15 K | 293.15 K | 298.15 K | 303.15 K | 308.15 K | 313.15 K | 318.15 K | 323.15 K
x2 = 0.03125 | 0.0244 | 0.0327 | 0.0431 | 0.0542 | 0.0663 | 0.0791 | 0.0925 | 0.108 | 0.123 | 0.139
x2 = 0.06767 | 0.0337 | 0.045 | 0.0589 | 0.0739 | 0.0903 | 0.108 | 0.126 | 0.147 | 0.167 | 0.189
x2 = 0.1107 | 0.0487 | 0.0645 | 0.0838 | 0.105 | 0.128 | 0.153 | 0.178 | 0.208 | 0.236 | 0.267
x2 = 0.1622 | 0.0695 | 0.0914 | 0.118 | 0.147 | 0.179 | 0.213 | 0.25 | 0.29 | 0.33 | 0.372
x2 = 0.225 | 0.09 | 0.119 | 0.153 | 0.192 | 0.235 | 0.28 | 0.328 | 0.382 | 0.435 | 0.491
x2 = 0.3034 | 0.113 | 0.148 | 0.19 | 0.239 | 0.291 | 0.347 | 0.408 | 0.474 | 0.541 | 0.61
x2 = 0.4038 | 0.13 | 0.17 | 0.218 | 0.273 | 0.334 | 0.399 | 0.469 | 0.546 | 0.625 | 0.705
x2 = 0.5373 | 0.139 | 0.182 | 0.232 | 0.292 | 0.357 | 0.427 | 0.505 | 0.589 | 0.676 | 0.764
x2 = 0.7232 | 0.142 | 0.182 | 0.235 | 0.297 | 0.364 | 0.438 | 0.519 | 0.607 | 0.699 | 0.792
